“Also recorded” adds a separate entry of the source. Positions of bridges follow the written chain, without caps; N, C: chain ends. Non-standard residues stand in square brackets, D forms with d. Residues, ends and D or L forms follow the SMILES beside them. *: point of attachment. Biotin = O=C1N[C@H]2[C@H](CS[C@H]2CCCCC(=O)*)N1; Hyp = O=C(O)[C@@H]1C[C@@H](O)CN1

Data set [1] concerns M2 macrophages. The data set can be described thus: Binding study of biotinylated peptides on polarized bone marrow-derived macrophages (streptavidin-FITC, flow cytometry). It counts as cell-based, mouse. Particulars: for binding activity to M2 macrophages (in words): biotinylated peptide, on ice 20 min. On the procedure: All animal handling protocols were approved by the University of Washington Institutional Animal Care and Use Committee. Bone marrow harvest was performed following the previously reported protocol. Briefly, femur and tibia were excised from 6-8 week-old female c57bl6/027 mice. Cuts were made on the ends of each bone, and RPMI 1640 medium was used to flush out bone marrow cells via 18G needle. The cells were cultured on petri dishes in RPMI 1640 medium supplemented with 20% donor horse serum, 1% antibiotic-antimycotic (AbAm), and 20 ng/mL M-CSF. After 7 d of culture, macrophages were activated by replacing M-CSF with 25 ng/mL IFN-γ and 100 ng/mL LPS for M1 macrophage or 25 ng/mL IL-4 for M2 macrophage. The macrophages were activated for 2 d and then scraped off the petri dishes with cell lifter for binding studies.
Peptide solutions at different concentrations for binding study were prepared by dilutions from the stock solution (10 mg/mL in dH2O) with PBS containing 1% BSA (PBSA). M1 and M2 macrophages (50,000 cells/well) were seeded on a black 96-well plate and incubated in the peptide solutions on ice for 20 min. Unbound peptides were washed off with PBSA twice. The macrophages were subsequently incubated with streptavidin-FITC for 15 min on ice to probe for the bound peptides. Excess streptavidin-FITC was washed off with PBSA twice, and the macrophages were then resuspended in PBS for analysis by MACSQuant Flow Cytometer (Miltenyi Biotec, San Diego, Calif.). Propidium iodide was added to the samples before the data acquisition to discriminate dead cells. Flow cytometry data were analyzed with FlowJo Analysis Software (Tree Star, Ashland, Oreg.). Binding study of peptides post serum incubation was similarly performed with the following additions: The peptides (5 mM stock solution in H2O) were diluted in serum to a final concentration of 0.5 mM and incubated at 37° C. in an incubator. At each time point, an aliquot of the peptides was drawn and diluted in PBS to the final concentration for the binding study. The diluted aliquot was heated at 80° C. for 30 min to inactivate serum proteins, stored in a −20° C. freezer, and thawed for use in the binding study after aliquots at all time points were collected.
All animal handling protocols were approved by the University of Washington Institutional Animal Care and Use Committee. Bone marrow-derived cells were harvested from female c57bl/6 mice as previously described. In brief, femurs and tibias of the mice were excised and flushed with RPMI 1640 medium via an 18G needle. The cells were cultured on petri dishes containing RPMI 1640 medium supplemented with 20% donor horse serum, 1% antibioticantimycotic (AbAm), and 20 ng/mL M-CSF. After 7 d in culture, the medium was replaced with an activation medium whereby M-CSF was replaced with 25 ng/mL IFN-γ and 100 ng/mL LPS for M1 activation or with 25 ng/mL IL-4 for M2 activation. For M1 activation medium, AbAm was replaced with 1% penicillin-streptomycin (Pen-Strep). After 2 d of activation, the activated macrophages were scraped off the petri dishes for binding studies.
Biotinylated peptide stock solutions were prepared in H2O at 10 mg/mL concentration and quantified for the exact concentration using Quant*Tag Biotin quantification kit. The stock solutions were diluted in PBS with 1% BSA (PBSA) to different concentrations for binding studies. Activated macrophages were seeded on a black 96-well plate (50,000 cells/well) and incubated with the peptide solutions for 20 min on ice. The cells were washed twice with PBSA and subsequently incubated with streptavidin-FITC for 15 min on ice. After two additional washes, the cells were resuspended in PBS for analysis via MACSQuant Flow Cytometer (Miltenyi Biotec, San Diego, Calif.). Propidium iodide (PI) was added before running each sample to assess for cell viability. Data analysis was processed on FlowJo Analysis Software (Tree Star, Ashland, Oreg.). […]

Data set [2] in a line: Serum stability study in normal mouse serum, analysis by MALDI-TOF MS. Particulars: mouse serum.
Experimental: The peptide of interest (30 μL of 10 mg/mL stock solution in dH2O) was added to normal mouse serum (300 μL) and incubated at 37° C. in an incubator. At each time point, an aliquot of 40 μL was drawn and an equal volume of ACN was added to the aliquot to precipitate serum proteins. The cloudy mixture was centrifuged at 10,000 rpm for 5 min and then supernatant removed. A solution of 1:1 H2O/ACN (80 μL) was added to the pellet and sonicated for 10 min to further extract the remaining peptides. This resuspended mixture was then centrifuged, and the supernatant was pooled with the former and vacuum-dried on a Speedvac machine. The dried pellet was solubilized in H2O (50 μL) by sonication for 10 min. The mixture was then centrifuged, and the supernatant was drawn and analyzed by MALDI-TOF MS.
To evaluate serum stability of M2pep, the peptide was incubated in mouse serum, and aliquots of the serum at various time points were withdrawn for analysis of degradation patterns by MALDI-TOF MS.
Different M2pep analogs (30 μL from 10 mg/mL stock solution in H2O) were incubated in normal mouse serum (300 μL) at 37° C. in an incubator. An aliquot of the serum (40 μL) was drawn at different time intervals and precipitated with an equal volume of cold ACN. The mixture was centrifuged at 15,000 rpm for 5 min, and the supernatant was collected. A solution of H2O/ACN (1:1 v/v, 80 μL) was added to the pellet with a 10-min sonication to further extract residual peptides. The mixture was then centrifuged. The supernatant was pooled with the former and dried under vacuum on a Speedvac machine. The peptide pellet was resuspended in H2O (50 μL) with a 10-min sonication before analysis by MALDI-ToF MS.

In the case of `CC(=O)N[C@@H](Cc1ccc(O)cc1)C(=O)N[C@@H](CCC(=O)O)C(=O)N[C@@H](CCC(N)=O)C(=O)N[C@@H](CC(=O)O)C(=O)N1CCC[C@H]1C(=O)N[C@@H](Cc1c[nH]c2ccccc12)C(=O)NCC(=O)N[C@H](C(=O)N[C@@H](CCCNC(=N)N)C(=O)N[C@@H](Cc1ccc(O)cc1)C(=O)N[C@@H](Cc1c[nH]c2ccccc12)C(=O)N[C@@H](Cc1ccc(O)cc1)C(=O)NCC(=O)NCC(=O)NCC(=O)N[C@@H](CO)C(=O)N[C@H](CCCCN)C(=O)N[C@H](CCCCN)C(=O)N[C@H](CCCCN)C(=O)N[C@@H](CCCCNC(=O)CCCC[C@@H]1SC[C@@H]2NC(=O)N[C@@H]21)C(N)=O)C(C)C` [AcM2pep(RY)Biotin, Ac-YEQDPWGVRYWYGGGSkkk] (Ac-YEQDPWGVRYWYGGGS[dK][dK][dK]K(Biotin)-NH2), the “binding activity to M2 macrophages (in words)” value (“binding activity” below) in data set [1] is given as “did not improve the binding activity any further compared to the K9R analog; also recorded: highest affinity linear M2pep analog”. The “serum stability at the W10/W11 endolytic cleavage site” value in data set [2] is “did not improve serum stability at the W10/W11 site”.
Regarding `CC(=O)N[C@@H](Cc1ccc(O)cc1)C(=O)N[C@@H](CCC(=O)O)C(=O)N[C@@H](CCC(N)=O)C(=O)N[C@@H](CC(=O)O)C(=O)N1CCC[C@H]1C(=O)N[C@@H](Cc1c[nH]c2ccccc12)C(=O)NCC(=O)N[C@H](C(=O)N[C@@H](CCCCN)C(=O)N[C@@H](Cc1c[nH]c2ccccc12)C(=O)N[C@@H](Cc1c[nH]c2ccccc12)C(=O)N[C@@H](Cc1ccc(O)cc1)C(=O)NCC(=O)NCC(=O)NCC(=O)N[C@@H](CO)C(=O)N[C@@H](CCCCN)C(=O)N[C@@H](CCCCN)C(=O)N[C@@H](CCCCN)C(=O)N[C@@H](CCCCNC(=O)CCCC[C@@H]1SC[C@@H]2NC(=O)N[C@@H]21)C(N)=O)C(C)C` [AcM2pepBiotin, Ac-YEQDPWGVKWWYGGGSKKK], the “binding selectivity to M2 macrophages over M1 macrophages” value in data set [1] (M2 versus M1 macrophages) is listed as “retained binding selectivity to M2 macrophages over M1 macrophages”. For the same compound, the “binding activity” value in data set [1] is “slight, but not statistically significant, reduction in binding activity”. The “N-terminal (exolytic) degradation in serum” value in data set [2] is “resistant to N-terminal degradation”. Further, the “overall serum stability (in words)” value in data set [2] (37° C., MALDI-TOF MS) was “did not improve the overall serum stability”.
Regarding `Fc1c(F)c(F)c(-c2c(F)c(F)c(F)c(F)c2F)c(F)c1F` [DFBP, decafluorobiphenyl, reference compound], the “binding activity” value in data set [1] is “negligible binding to M2 macrophages”.
Regarding `CC(=O)N[C@@H](Cc1ccc(O)cc1)C(=O)N[C@@H](CCC(=O)O)C(=O)N[C@@H](CCC(N)=O)C(=O)N[C@@H](CC(=O)O)C(=O)N1CCC[C@H]1C(=O)N[C@@H](Cc1c[nH]c2ccccc12)C(=O)NCC(=O)N[C@H](C(=O)N[C@@H](CCCNC(=N)N)C(=O)N[C@@H](Cc1c[nH]c2ccccc12)C(=O)N[C@@H](Cc1c[nH]c2ccccc12)C(=O)N[C@@H](Cc1ccc(O)cc1)C(=O)NCC(=O)NCC(=O)NCC(=O)N[C@@H](CO)C(=O)N[C@@H](CCCCN)C(=O)N[C@@H](CCCCN)C(=O)N[C@@H](CCCCN)C(=O)N[C@@H](CCCCNC(=O)CCCC[C@@H]1SC[C@@H]2NC(=O)N[C@@H]21)C(N)=O)C(C)C` [K9R, Ac-YEQDPWGVRWWYGGGSKKK], in data set [1], the “binding activity” value was “significantly increased binding activity”. Also, the “serum stability at the W10/W11 endolytic cleavage site” value in data set [2] is reported as “did not confer protection at the W10/W11 site”.
Turning to `CC(=O)N[C@@H](Cc1ccc(O)cc1)C(=O)N[C@@H](CCC(=O)O)C(=O)N[C@@H](CCC(N)=O)C(=O)N[C@@H](CC(=O)O)C(=O)N1C[C@H](O)C[C@H]1C(=O)N[C@@H](Cc1c[nH]c2ccccc12)C(=O)NCC(=O)N[C@H](C(=O)N[C@@H](CCCNC(=N)N)C(=O)N[C@@H](Cc1ccc(O)cc1)C(=O)N[C@@H](Cc1c[nH]c2ccccc12)C(=O)N[C@H](Cc1ccc(O)cc1)C(=O)NCC(=O)NCC(=O)NCC(=O)N[C@@H](CO)C(=O)N[C@H](CCCCN)C(=O)N[C@H](CCCCN)C(=O)N[C@H](CCCCN)C(=O)N[C@@H](CCCCNC(=O)CCCC[C@@H]1SC[C@@H]2NC(=O)N[C@@H]21)C(N)=O)C(C)C` [P5Hyp, Ac-YEQD(Hyp)WGVRYWyGGGSkkk] (Ac-YEQD[Hyp]WGVRYW[dY]GGGS[dK][dK][dK]K(Biotin)-NH2), the “binding activity” value in data set [1] is given as “significantly ablated the binding activity”.
`CC(=O)N[C@@H](CCCNC(=N)N)C(=O)N[C@@H](Cc1ccc(O)cc1)C(=O)N[C@@H](CCC(=O)O)C(=O)N[C@@H](CCC(N)=O)C(=O)N[C@@H](CC(=O)O)C(=O)N1CCC[C@H]1C(=O)N[C@@H](Cc1c[nH]c2ccccc12)C(=O)NCC(=O)N[C@H](C(=O)N[C@@H](CCCNC(=N)N)C(=O)N[C@@H](Cc1ccc(O)cc1)C(=O)N[C@@H](Cc1c[nH]c2ccccc12)C(=O)N[C@H](Cc1ccc(O)cc1)C(=O)NCC(=O)NCC(=O)NCC(=O)N[C@@H](CO)C(=O)N[C@H](CCCCN)C(=O)N[C@H](CCCCN)C(=O)N[C@H](CCCCN)C(=O)N[C@@H](CCCCNC(=O)CCCC[C@@H]1SC[C@@H]2NC(=O)N[C@@H]21)C(N)=O)C(C)C` [R0, Ac-RYEQDPWGVRYWyGGGSkkk] (Ac-RYEQDPWGVRYW[dY]GGGS[dK][dK][dK]K(Biotin)-NH2): the “binding activity” value in data set [1] is given as “did not improve binding activity any further”.
Consider `Cc1cn(C)nn1` [Triazole-cyclized M2pep(RY)Biotin], for which the “binding activity” value in data set [1] was “bind less strongly”.
As to `CC(=O)N[C@@H](Cc1ccc(O)cc1)C(=O)N[C@@H](CCC(=O)O)C(=O)N[C@@H](CCC(N)=O)C(=O)N[C@@H](CC(=O)O)C(=O)N1CCC[C@H]1C(=O)N[C@@H](Cc1c[nH]c2ccccc12)C(=O)NCC(=O)N[C@H](C(=O)N[C@@H](CCCCN)C(=O)N[C@H](Cc1c[nH]c2ccccc12)C(=O)N[C@H](Cc1c[nH]c2ccccc12)C(=O)N[C@@H](Cc1ccc(O)cc1)C(=O)NCC(=O)NCC(=O)NCC(=O)N[C@@H](CO)C(=O)N[C@@H](CCCCN)C(=O)N[C@@H](CCCCN)C(=O)N[C@@H](CCCCN)C(=O)N[C@@H](CCCCNC(=O)CCCC[C@@H]1SC[C@@H]2NC(=O)N[C@@H]21)C(N)=O)C(C)C` [W(10,11)w, Ac-YEQDPWGVKwwYGGGSKKK], the “binding activity” value in data set [1] is recorded as “did not restore the binding activity”.
In the case of `CC(C)[C@@H]1NC(=O)CNC(=O)[C@H](Cc2c[nH]c3ccccc23)NC(=O)[C@@H]2CCCN2C(=O)[C@H](CC(=O)O)NC(=O)CNC(=O)[C@@H](N)CSSC[C@@H](C(=O)N[C@H](CCCCN)C(=O)N[C@H](CCCCN)C(=O)N[C@H](CCCCN)C(=O)N[C@@H](CCCCNC(=O)CCCC[C@@H]2SC[C@@H]3NC(=O)N[C@@H]32)C(N)=O)NC(=O)CNC(=O)[C@H](Cc2c[nH]c3ccccc23)NC(=O)[C@H](Cc2ccc(O)cc2)NC(=O)[C@H](CCCNC(=N)N)NC1=O` [cRYW, CGDPWGVRYWGCkkk] (H-CGDPWGVRYWGC[dK][dK][dK]K(Biotin)-NH2; disulfide 1-12), in data set [1], the “binding activity” value is on record as “significantly lower binding activity compared to cyclic M2pep(RY)Biotin”.
The same measure, in the same setting: to `CC(C)[C@@H]1NC(=O)CNC(=O)[C@H](Cc2c[nH]c3ccccc23)NC(=O)[C@@H]2CCCN2C(=O)[C@H](CC(=O)O)NC(=O)CNC(=O)[C@@H](N)CSSC[C@@H](C(=O)N[C@H](CCCCN)C(=O)N[C@H](CCCCN)C(=O)N[C@H](CCCCN)C(=O)N[C@@H](CCCCNC(=O)CCCC[C@@H]2SC[C@@H]3NC(=O)N[C@@H]32)C(N)=O)NC(=O)CNC(=O)[C@H](Cc2ccc(O)cc2)NC(=O)[C@H](Cc2c[nH]c3ccccc23)NC(=O)[C@H](Cc2ccc(O)cc2)NC(=O)[C@H](CCCNC(=N)N)NC1=O` [cRYWY, CGDPWGVRYWYGCkkk] (H-CGDPWGVRYWYGC[dK][dK][dK]K(Biotin)-NH2; disulfide 1-13) belongs “significantly lower binding activity compared to cyclic M2pep(RY)Biotin”; to “Biotin-Ahx-GRGRGRG(C-DFBP)G [reference compound]”, “binds very weakly to macrophages even at 100 μM”.

The record behind these values is US20170246311A1, “PEPTIDES FOR BINDING ALTERNATIVELY ACTIVATED MACROPHAGES” (University of Washington, priority 2016, published 2017).
